Article PMC7861561 (Current Research in Structural Biology, 2020)
Ends that are not written are not given here.

Biological target: T1, BRPF1 bromodomain (Homo sapiens, UniProt P55201)
T1 sequence (P55201 629-742): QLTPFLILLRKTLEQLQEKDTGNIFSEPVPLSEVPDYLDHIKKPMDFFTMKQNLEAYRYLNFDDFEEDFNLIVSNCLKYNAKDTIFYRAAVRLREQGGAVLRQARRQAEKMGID
Test: biochemical
Assay type: binding
Details: SD

How did the Kd turn out when LGKGGAK(Ac)RHRK [H4K16ac (10–20)] was run?
Its Kd is 518 ± 92.1 µM.
